Laboratory results as given in the supplement of paper PMC6045584.
± gives the standard deviation of the averaged measurements.

Compound: CC(=O)c1c(C)c2cnc(Nc3ccc(N4CCNCC4)cn3)nc2n(C2CCCC2)c1=O
Assay: surviving fraction relative to DMSO-only wells; higher = less growth inhibition
Conditions: 0.5 nM; exposure time: 5 days
Method in brief: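 Inhibitors were tested at 0.5, 1, 5, 10, 50, 100, 500 and 1000 nM, applied continuously for five days beginning 24 hours after log-phase tumour cells were seeded at 250–500 per well in 384-well plates. CellTiter-Glo luminescence served as the viability measure, expressed as surviving fraction against the median of DMSO-only wells. Each line, screened three times, was kept only with replicate Pearson r >0.7 and median Z' >0.3.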

Row | Test System | surviving fraction
1 | 22RV1 PROSTATE | 1.05 ± 0.089
2 | 93VU HEADNECK | 1.09 ± 0.1
3 | 143B BONE | 1.042 ± 0.0092
4 | A549 LUNG | 1.03 ± 0.035
5 | ASKA SYNOVIAL | 1.04 ± 0.06
6 | BT20 BREAST | 1.12 ± 0.19
7 | BT549 BREAST | 1.1 ± 0.12
8 | CADOES1 SOFT TISSUE | 0.962 ± 0.048
9 | CAL51 BREAST | 0.964 ± 0.089
10 | CAL72 BONE | 1.1 ± 0.066
11 | CAL120 BREAST | 0.953 ± 0.017
12 | CASKI CERVIX | 1.02 ± 0.062
13 | CHLA90 AUTONOMIC GANGLIA | 1.04 ± 0.067
14 | CME SYNOVIAL | 1.23 ± 0.18
15 | COLO320DM LARGE INTESTINE | 1.084 ± 0.0093
16 | DU4475 BREAST | 1.11 ± 0.15

Row | Test System | surviving fraction
17 | G292 BONE | 1 ± 0.068
18 | H23 LUNG | 1.01 ± 0.035
19 | HCC38 BREAST | 1.11 ± 0.12
20 | HCC78 LUNG | 1.03 ± 0.14
21 | HCC202 BREAST | 0.959 ± 0.31
22 | HCC1806 BREAST | 0.984 ± 0.095
23 | HMLE3 BREAST | 1.05 ± 0.084
24 | HMT3552 BREAST | 1.05
25 | HOS BONE | 1.02 ± 0.068
26 | HOSMNG BONE | 1.03 ± 0.021
27 | HS57T BREAST | 1.02 ± 0.025
28 | HSSYII SYNOVIAL | 0.986 ± 0.015
29 | HT1080 SOFT TISSUE | 0.997 ± 0.026
30 | HU09 BONE | 0.993 ± 0.16
31 | HUO3N1 BONE | 1.01 ± 0.041

Same assay, conditions: 1 nM; exposure time: 5 days

Row | Test System | surviving fraction
32 | 22RV1 PROSTATE | 1.06 ± 0.032
33 | 93VU HEADNECK | 1.04 ± 0.09
34 | 143B BONE | 1.048 ± 0.0064
35 | A549 LUNG | 1.02 ± 0.018
36 | ASKA SYNOVIAL | 0.971 ± 0.057
37 | BT20 BREAST | 1.06 ± 0.3
38 | BT549 BREAST | 1.124 ± 0.0096
39 | CADOES1 SOFT TISSUE | 0.897 ± 0.11
40 | CAL51 BREAST | 0.962 ± 0.055
41 | CAL72 BONE | 1.12 ± 0.061
42 | CAL120 BREAST | 0.965 ± 0.026
43 | CASKI CERVIX | 0.971 ± 0.028
44 | CHLA90 AUTONOMIC GANGLIA | 1.06 ± 0.02
45 | CME SYNOVIAL | 1.27 ± 0.14
46 | COLO320DM LARGE INTESTINE | 1.08 ± 0.04
47 | DU4475 BREAST | 1.23 ± 0.076

Row | Test System | surviving fraction
48 | G292 BONE | 0.976 ± 0.033
49 | H23 LUNG | 1 ± 0.029
50 | HCC38 BREAST | 1.22 ± 0.16
51 | HCC78 LUNG | 0.975 ± 0.063
52 | HCC202 BREAST | 0.859 ± 0.088
53 | HCC1806 BREAST | 0.999 ± 0.085
54 | HMLE3 BREAST | 1.08 ± 0.081
55 | HMT3552 BREAST | 1.05
56 | HOS BONE | 1.03 ± 0.021
57 | HOSMNG BONE | 0.978 ± 0.16
58 | HS57T BREAST | 1.08 ± 0.097
59 | HSSYII SYNOVIAL | 0.935 ± 0.028
60 | HT1080 SOFT TISSUE | 1.04 ± 0.017
61 | HU09 BONE | 0.91 ± 0.051
62 | HUO3N1 BONE | 1.04 ± 0.032

Same assay, conditions: 5 nM; exposure time: 5 days

Row | Test System | surviving fraction
63 | 22RV1 PROSTATE | 1.04 ± 0.067
64 | 93VU HEADNECK | 1.12 ± 0.049
65 | 143B BONE | 1.03 ± 0.021
66 | A549 LUNG | 1.05 ± 0.0087
67 | ASKA SYNOVIAL | 1.06 ± 0.094
68 | BT20 BREAST | 0.955 ± 0.23
69 | BT549 BREAST | 1.22 ± 0.14
70 | CADOES1 SOFT TISSUE | 0.821 ± 0.078
71 | CAL51 BREAST | 0.982 ± 0.037
72 | CAL72 BONE | 1.12 ± 0.025
73 | CAL120 BREAST | 0.9478 ± 0.0082
74 | CASKI CERVIX | 0.999 ± 0.038
75 | CHLA90 AUTONOMIC GANGLIA | 1.04 ± 0.075
76 | CME SYNOVIAL | 1.3 ± 0.18
77 | COLO320DM LARGE INTESTINE | 1.12 ± 0.038
78 | DU4475 BREAST | 1.08 ± 0.17

Row | Test System | surviving fraction
79 | G292 BONE | 1 ± 0.024
80 | H23 LUNG | 1.04 ± 0.038
81 | HCC38 BREAST | 1.23 ± 0.036
82 | HCC78 LUNG | 1.29 ± 0.046
83 | HCC202 BREAST | 1.01 ± 0.094
84 | HCC1806 BREAST | 1.05 ± 0.046
85 | HMLE3 BREAST | 1.05 ± 0.026
86 | HMT3552 BREAST | 0.895
87 | HOS BONE | 1.01 ± 0.022
88 | HOSMNG BONE | 1.02 ± 0.042
89 | HS57T BREAST | 1.11 ± 0.052
90 | HSSYII SYNOVIAL | 0.975 ± 0.035
91 | HT1080 SOFT TISSUE | 1.05 ± 0.017
92 | HU09 BONE | 1.08 ± 0.022
93 | HUO3N1 BONE | 1.05 ± 0.035

Same assay, conditions: 10 nM; exposure time: 5 days

Row | Test System | surviving fraction
94 | 22RV1 PROSTATE | 1.048 ± 0.0085
95 | 93VU HEADNECK | 1.07 ± 0.025
96 | 143B BONE | 1.051 ± 0.0099
97 | A549 LUNG | 0.993 ± 0.039
98 | ASKA SYNOVIAL | 1.02 ± 0.071
99 | BT20 BREAST | 0.982 ± 0.1
100 | BT549 BREAST | 1.03 ± 0.098
101 | CADOES1 SOFT TISSUE | 0.883 ± 0.13
102 | CAL51 BREAST | 0.94 ± 0.06
103 | CAL72 BONE | 1.13 ± 0.05
104 | CAL120 BREAST | 0.9508 ± 0.0056
105 | CASKI CERVIX | 0.977 ± 0.015
106 | CHLA90 AUTONOMIC GANGLIA | 1.01 ± 0.055
107 | CME SYNOVIAL | 1.18 ± 0.11
108 | COLO320DM LARGE INTESTINE | 1.1 ± 0.039
109 | DU4475 BREAST | 1.08 ± 0.31

Row | Test System | surviving fraction
110 | G292 BONE | 1.02 ± 0.045
111 | H23 LUNG | 0.928 ± 0.065
112 | HCC38 BREAST | 1.19 ± 0.14
113 | HCC78 LUNG | 0.899 ± 0.2
114 | HCC202 BREAST | 0.874 ± 0.16
115 | HCC1806 BREAST | 1.08 ± 0.17
116 | HMLE3 BREAST | 1.03 ± 0.043
117 | HMT3552 BREAST | 0.991
118 | HOS BONE | 1.04 ± 0.034
119 | HOSMNG BONE | 1 ± 0.048
120 | HS57T BREAST | 1.1 ± 0.031
121 | HSSYII SYNOVIAL | 1 ± 0.019
122 | HT1080 SOFT TISSUE | 1.03 ± 0.019
123 | HU09 BONE | 1.05 ± 0.11
124 | HUO3N1 BONE | 1.01 ± 0.066

Same assay, conditions: 50 nM; exposure time: 5 days

Row | Test System | surviving fraction
125 | 22RV1 PROSTATE | 1.09 ± 0.053
